Data from patent US8962810B2, “Macrocyclic heterocyclic compound for inhibiting hepatitis C virus and preparation and use thereof” (AB Pharma Ltd., priority 2011, dated 2015).

Target: T1, HCV Protease (HCV NS3-4A) (Hepatitis C virus genotype 1a, UniProt P27958)
T1 construct: HCV Protease: HCV NS3-4A, self-prepared; made in house
Test: HCV Protease (HCV NS3-4A) anti-activity assay, fluorescence quenching (FRET)
Format: biochemical
Experimental: Method of HCV Protease (HCV NS3-4A) Anti-Activity Assay:
HCV Protease (HCV NS3/4A) anti-activity was measured by an inter fluorescence quenching system. EDANS group and DABCYL group were bonded on each side of a peptide. When protein cleavage started, fluorescence quenching of EDANS by DABCYL was detected. We used a high throughput screening model for HCV NS3/4A protease inhibitors, the tested drugs were prepared with 5 different concentrations, positive control and negative control were set in the same time. In the optimized reaction system, fluorescence were determined at ex=355, em=520 by a Polarstar fluorescence detector. Calculate the inhibition rate of each concentration; calculate the half maximal inhibitory concentration (IC50) with the method of Reed-Muench.
Materials: HCV Protease: HCV NS3-4A, self-prepared, stored at −70. HCV Protease substrate (FRET-S): Ac-Asp-Glu-Asp(EDANS)-Glu-Glu-Abu-ψ-[COO]-Ala-Ser-Lys-(DABCYL)-NH2, supplied by AnaSpec USA, prepared of 100 μM by DMSO, distributed and stored at −20 without light. Buffer solution: 30 mM NaCl, 5 mM CaCl2, 10 mM DTT, 50 mM Tris (pH7.8).
Instrument: fluorescence detector Polarstar from Germany Company BMG
Preparation and operation: preparation of 10 mg/mL by DMSO, dilute of 10000, 2000, 400, 80, 16 ng/mL as tested concentrations by buffer solutions, adding 20 μL into each well, the total reaction system is 200 μL, to make the final concentrations of 1000, 200, 40, 8, 1.6 ng/mL. Add 140 μL buffer solution, 20 μL drug solution, 20 μL HCV protease, and 20 μL FRET-S substrate with final concentration of 0.25 μM into 96-well fluorescence microtiterplate, the reaction started at 37, set control wells of protease-substrate reaction and of isolate substrate and isolate protease, fluorescence signals were detected by fluorescence detector (ex=355,em=520). Calculate the inhibition rates of samples for each concentration by comparison of fluorescence value of sample in each well and the fluorescence control value of enzyme, calculate the half maximal inhibitory concentration (IC50) of samples to HCV protease with the method of Reed-Muench.
THF and Et2O were distilled from sodium metal and benzophenone. DCM, pentane and hexane were distilled form calcium hydride. Special raw materials and intermediates in the invention were supplied by Zannan SciTech Co. for ordered processing, Ltd. in Shanghai, others reagents were purchased from Shanghai reagent company, Aldrich, Acros etc. If intermediates or products of synthesis were not enough for the next step of reaction, the synthesis shall be repeated until it is sufficient. The HCV protease (HCV NS3-4A) inhibitory activity assays in the present invention were performed by relevant cooperation service units of China Institutes for Biological Science in Beijing.

T1 sequence (P27958 1658-1711): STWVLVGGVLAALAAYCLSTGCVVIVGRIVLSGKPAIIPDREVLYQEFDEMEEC
T1 sequence (P27958 1027-1657): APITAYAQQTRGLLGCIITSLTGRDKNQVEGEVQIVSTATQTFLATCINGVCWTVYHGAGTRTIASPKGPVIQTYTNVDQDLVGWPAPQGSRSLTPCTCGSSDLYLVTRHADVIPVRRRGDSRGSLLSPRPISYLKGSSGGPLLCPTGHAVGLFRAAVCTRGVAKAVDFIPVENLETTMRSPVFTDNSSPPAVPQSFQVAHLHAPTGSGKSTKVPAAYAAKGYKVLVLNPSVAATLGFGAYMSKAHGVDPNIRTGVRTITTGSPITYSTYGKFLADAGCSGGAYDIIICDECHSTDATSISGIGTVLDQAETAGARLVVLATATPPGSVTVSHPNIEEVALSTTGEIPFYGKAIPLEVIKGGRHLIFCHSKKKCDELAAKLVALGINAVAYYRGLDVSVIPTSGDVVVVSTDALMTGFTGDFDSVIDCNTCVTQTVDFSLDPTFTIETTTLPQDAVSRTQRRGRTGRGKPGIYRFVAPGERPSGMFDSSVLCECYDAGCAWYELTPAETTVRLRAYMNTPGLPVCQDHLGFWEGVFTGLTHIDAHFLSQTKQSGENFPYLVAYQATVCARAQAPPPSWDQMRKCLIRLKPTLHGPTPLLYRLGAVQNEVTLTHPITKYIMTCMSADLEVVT

| Compound | IC50 [nM] |
| --- | --- |
| CC[C@H]1C[C@@]1(NC(=O)C1C[C@@H]2CN1C(=O)[C@H](C(C)(C)C)NC(=O)OCC(C)(C)CCCCOC(=O)c1ccc3c(c1)CN(C3)C(=O)O2)C(=O)NS(=O)(=O)C1CC1 (stereo partly shown) [Compound 15br] | 51 to 300 |
| CCC1CC1(NC(=O)C1CC2CN1C(=O)C(C(C)(C)C)NC(=O)OCC(C)(C)CCCCCOC(=O)c1ccc3c(c1)CN(C3)C(=O)O2)C(=O)NS(=O)(=O)C1CC1 (stereo not shown) [Compound 15bs] | 51 to 300 |
| C=CC1CC1(NC(=O)C1CC2CN1C(=O)C(C(C)(C)C)NC(=O)OCCCC=Cc1c3c(cc4c1OCO4)CN(C3)C(=O)O2)C(=O)NS(=O)(=O)C1CC1 (stereo not shown) [Compound 15bt] | 0.1 to 5 |
| C=C[C@H]1C[C@@]1(NC(=O)C1C[C@@H]2CN1C(=O)[C@H](C(C)(C)C)NC(=O)OCCCC/C=C\c1c3c(cc4c1OCO4)CN(C3)C(=O)O2)C(=O)NS(=O)(=O)C1CC1 (stereo partly shown) [Compound 15bu] | 0.1 to 5 |
| C=C[C@H]1C[C@@]1(NC(=O)C1C[C@@H]2CN1C(=O)[C@H](C(C)(C)C)NC(=O)OCC(C)(C)CC/C=C\c1c3c(cc4c1OCO4)CN(C3)C(=O)O2)C(=O)NS(=O)(=O)C1CC1 (stereo partly shown) [Compound 15bv] | 0.1 to 5 |
| CC[C@H]1C[C@@]1(NC(=O)C1C[C@@H]2CN1C(=O)[C@H](C(C)(C)C)NC(=O)OCCCC/C=C\c1c3c(cc4c1OCO4)CN(C3)C(=O)O2)C(=O)NS(=O)(=O)C1CC1 (stereo partly shown) [Compound 15bw] | 0.1 to 5 |
| CC[C@H]1C[C@@]1(NC(=O)C1C[C@@H]2CN1C(=O)[C@H](C(C)(C)C)NC(=O)OCCCCCCc1c3c(cc4c1OCO4)CN(C3)C(=O)O2)C(=O)NS(=O)(=O)C1CC1 (stereo partly shown) [Compound 15bx] | 0.1 to 5 |
| CC[C@H]1C[C@@]1(NC(=O)C1C[C@@H]2CN1C(=O)[C@H](C(C)(C)C)NC(=O)OCC(C)(C)CCCCc1c3c(cc4c1OCO4)CN(C3)C(=O)O2)C(=O)NS(=O)(=O)C1CC1 (stereo partly shown) [Compound 15by] | 0.1 to 5 |
| C=C[C@H]1C[C@@]1(NC(=O)C1C[C@@H]2CN1C(=O)[C@H](C(C)(C)C)NC(=O)OCC1(CC/C=C/COc3cccc4c3CN(C4)C(=O)O2)CC1)C(=O)NS(=O)(=O)C1CC1 (stereo partly shown) [Compound 15c] | 0.1 to 5 |
| CC[C@H]1C[C@@]1(NC(=O)C1C[C@@H]2CN1C(=O)[C@H](C(C)(C)C)NC(=O)OCC1(C/C=C/CSc3cccc4c3CN(C4)C(=O)O2)CC1)C(=O)NS(=O)(=O)C1CC1 (stereo partly shown) [Compound 15ca] | 0.1 to 5 |
| CC[C@H]1C[C@@]1(NC(=O)C1C[C@@H]2CN1C(=O)[C@H](C(C)(C)C)NC(=O)OCC(C)(C)C/C=C/CSc1cccc3c1CN(C3)C(=O)O2)C(=O)NS(=O)(=O)C1CC1 (stereo partly shown) [Compound 15cb] | 0.1 to 5 |
| CC[C@H]1C[C@@]1(NC(=O)C1C[C@@H]2CN1C(=O)[C@H](C(C)(C)C)NC(=O)OCCC/C=C/CSc1cccc3c1CN(C3)C(=O)O2)C(=O)NS(=O)(=O)C1CC1 (stereo partly shown) [Compound 15cc] | 0.1 to 5 |
| CC[C@H]1C[C@@]1(NC(=O)C1C[C@@H]2CN1C(=O)[C@H](C(C)(C)C)NC(=O)OCC(C)(C)CCCCN(C)c1cccc3c1CN(C3)C(=O)O2)C(=O)NS(=O)(=O)C1CC1 (stereo partly shown) [Compound 15cd] | 0.1 to 5 |
| C=C[C@H]1C[C@@]1(NC(=O)C1C[C@@H]2CN1C(=O)[C@H](C(C)(C)C)NC(=O)OCC1(CCCCCOc3cccc4c3CN(C4)C(=O)O2)CC1)C(=O)NS(=O)(=O)C1CC1 (stereo partly shown) [Compound 15d] | 0.1 to 5 |
| CC[C@H]1C[C@@]1(NC(=O)C1C[C@@H]2CN1C(=O)[C@H](C(C)(C)C)NC(=O)OCC1(CCCCOc3cccc4c3CN(C4)C(=O)O2)CC1)C(=O)NS(=O)(=O)C1CC1 (stereo partly shown) [Compound 15e] | 0.1 to 5 |
| CC[C@H]1C[C@@]1(NC(=O)C1C[C@@H]2CN1C(=O)[C@H](C(C)(C)C)NC(=O)OCC1(C/C=C/COc3cccc4c3CN(C4)C(=O)O2)CC1)C(=O)NS(=O)(=O)C1CC1 (stereo partly shown) [Compound 15f] | 0.1 to 5 |

| Compound | IC50 [nM] |
| --- | --- |
| C=C[C@H]1C[C@@]1(NC(=O)C1C[C@@H]2CN1C(=O)[C@H](C(C)(C)C)NC(=O)OCC1(C/C=C/COc3cccc4c3CN(C4)C(=O)O2)CC1)C(=O)NS(=O)(=O)C1CC1 (stereo partly shown) [Compound 15g] | 0.1 to 5 |
| CC[C@H]1C[C@@]1(NC(=O)C1C[C@@H]2CN1C(=O)[C@H](C(C)(C)C)NC(=O)OCC(C)(C)C/C=C/COc1c(OC)ccc3c1CN(C3)C(=O)O2)C(=O)NS(=O)(=O)C1CC1 (stereo partly shown) [Compound 15h] | 5.1 to 50 |
| C=C[C@H]1C[C@@]1(NC(=O)C1C[C@@H]2CN1C(=O)[C@H](C(C)(C)C)NC(=O)OCCCC/C=C/COc1c(OC)ccc3c1CN(C3)C(=O)O2)C(=O)NS(=O)(=O)C1CC1 (stereo partly shown) [Compound 15j] | 0.1 to 5 |
| C=C[C@H]1C[C@@]1(NC(=O)C1C[C@@H]2CN1C(=O)[C@H](C(C)(C)C)NC(=O)OCCC/C=C/COc1c(OC)ccc3c1CN(C3)C(=O)O2)C(=O)NS(=O)(=O)C1CC1 (stereo partly shown) [Compound 15k] | 0.1 to 5 |
| CCC1CC1(NC(=O)C1CC2CN1C(=O)C(C(C)(C)C)NC(=O)OCCC=CCOc1c(OC)ccc3c1CN(C3)C(=O)O2)C(=O)NS(=O)(=O)C1CC1 (stereo not shown) [Compound 15m] | 5.1 to 50 |
| C=C[C@H]1C[C@@]1(NC(=O)C1C[C@@H]2CN1C(=O)[C@H](C(C)(C)C)NC(=O)OCC/C=C/COc1c(OC)ccc3c1CN(C3)C(=O)O2)C(=O)NS(=O)(=O)C1CC1 (stereo partly shown) [Compound 15n] | 0.1 to 5 |
| C=CC1CC1(NC(=O)C1CC2CN1C(=O)C(C(C)(C)C)NC(=O)OCC(C)(C)CC=CCOc1c(OC)ccc3c1CN(C3)C(=O)O2)C(=O)NS(=O)(=O)C1CC1 (stereo not shown) [Compound 15p] | 0.1 to 5 |
| CC[C@H]1C[C@@]1(NC(=O)C1C[C@@H]2CN1C(=O)[C@H](C(C)(C)C)NC(=O)OCCCC/C=C/COc1c(OC)ccc3c1CN(C3)C(=O)O2)C(=O)NS(=O)(=O)C1CC1 (stereo partly shown) [Compound 15q] | 5.1 to 50 |
| CC[C@H]1C[C@@]1(NC(=O)C1C[C@@H]2CN1C(=O)[C@H](C(C)(C)C)NC(=O)OCC(C)(C)CC/C=C/COc1cccc3c1CN(C3)C(=O)O2)C(=O)NS(=O)(=O)C1CC1 (stereo partly shown) [Compound 15r] | 0.1 to 5 |
| CCC1CC1(NC(=O)C1CC2CN1C(=O)C(C(C)(C)C)NC(=O)OCC(C)(C)CCCCOc1cccc3c1CN(C3)C(=O)O2)C(=O)NS(=O)(=O)C1CC1 (stereo not shown) [Compound 15u] | 0.1 to 5 |
| CCC1CC1(NC(=O)C1CC2CN1C(=O)C(C(C)(C)C)NC(=O)OCC(C)(C)CCCCCOc1cc(OC)cc3c1CN(C3)C(=O)O2)C(=O)NS(=O)(=O)C1CC1 (stereo not shown) [Compound 15v] | 0.1 to 5 |
| CC[C@H]1C[C@@]1(NC(=O)C1C[C@@H]2CN1C(=O)[C@H](C(C)(C)C)NC(=O)OCCCCCCOc1cccc3c1CN(C3)C(=O)O2)C(=O)NS(=O)(=O)C1CC1 (stereo partly shown) [Compound 15w] | 0.1 to 5 |
| CC[C@H]1C[C@@]1(NC(=O)C1C[C@@H]2CN1C(=O)[C@H](C(C)(C)C)NC(=O)OCCCCCCCOc1cccc3c1CN(C3)C(=O)O2)C(=O)NS(=O)(=O)C1CC1 (stereo partly shown) [Compound 15x] | 0.1 to 5 |
| CCC1CC1(NC(=O)C1CC2CN1C(=O)C(C(C)(C)C)NC(=O)OCCCCCCCCOc1cccc3c1CN(C3)C(=O)O2)C(=O)NS(=O)(=O)C1CC1 (stereo not shown) [Compound 15y] | 5.1 to 50 |
| CC[C@H]1C[C@@]1(NC(=O)C1C[C@@H]2CN1C(=O)[C@H](C(C)(C)C)NC(=O)OCCCCCCCCCOc1cccc3c1CN(C3)C(=O)O2)C(=O)NS(=O)(=O)C1CC1 (stereo partly shown) [Compound 15z] | 5.1 to 50 |
